According to US20210070748A1, “INHIBITORS OF BRUTONS TYROSINE KINASE” (Pharmacyclics LLC, priority 2015, published 2021):

These compounds were tested against T1, BTK-WT (Homo sapiens, UniProt Q06187) (assay: Btk in vitro inhibitory activity (one of Method A TR-FRET, Method B electrophoretic mobility shift, Method C radiometric filter binding)). Settings: D-compounds panel data; read-out: IC50 BTK-WT.
T1 construct: purified from insect cells as a full-length construct containing an N-terminal 6X-His tag; His6 (N); made in house; host or cells: insect cells (baculovirus Sf21 in Method B)
Assay type: biochemical

T1 sequence (Q06187 whole entry): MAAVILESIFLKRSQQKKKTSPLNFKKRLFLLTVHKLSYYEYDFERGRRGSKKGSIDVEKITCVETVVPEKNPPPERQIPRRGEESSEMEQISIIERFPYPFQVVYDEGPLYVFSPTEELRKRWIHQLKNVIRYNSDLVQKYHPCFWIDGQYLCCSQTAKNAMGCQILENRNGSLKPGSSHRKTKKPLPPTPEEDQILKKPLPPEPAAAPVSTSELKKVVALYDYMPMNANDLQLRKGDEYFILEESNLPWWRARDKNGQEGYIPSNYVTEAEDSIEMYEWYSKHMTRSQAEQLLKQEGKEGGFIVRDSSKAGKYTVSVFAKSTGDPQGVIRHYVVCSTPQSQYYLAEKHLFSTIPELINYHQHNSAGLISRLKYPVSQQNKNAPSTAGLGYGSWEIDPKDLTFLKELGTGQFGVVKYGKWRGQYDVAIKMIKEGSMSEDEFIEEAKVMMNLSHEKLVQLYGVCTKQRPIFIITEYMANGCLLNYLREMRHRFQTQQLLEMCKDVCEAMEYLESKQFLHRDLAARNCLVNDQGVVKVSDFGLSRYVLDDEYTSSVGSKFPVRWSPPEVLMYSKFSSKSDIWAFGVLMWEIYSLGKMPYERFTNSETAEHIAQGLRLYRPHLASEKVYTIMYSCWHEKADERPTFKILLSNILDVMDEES

**Q.** Which IC50 does the source give for `C[C@@H]1[C@H](NC(=O)c2ccc(N(C)C)cc2)CCCN1c1cnc(C(N)=O)c(Nc2ccc(C3(C)CCN(C4CCCC4)CC3)cc2)n1` [Example D-183, 3-{[4-(1-cyclopentyl-4-methylpiperidin-4-yl)phenyl]amino}-5-[(2R,3R)-3-[4-(dimethylamino)benzamido]-2-methylpiperidin-1-yl]pyrazine-2-carboxamide] here?
**A.** ≤ 10 nM

**Q.** `Cn1cc(Nc2nc(N3CCC[C@@H](n4ccc5cc(C6CC6)ccc5c4=O)C3)cnc2C(N)=O)cn1` [Example D-184, 5-[(3R)-3-(6-cyclopropyl-1-oxo-1,2-dihydroisoquinolin-2-yl)piperidin-1-yl]-3-[(1-methyl-1H-pyrazol-4-yl)amino]pyrazine-2-carboxamide] was tested. Which IC50 did it give?
**A.** ≤ 10 nM

**Q.** Which IC50 does the source give for `C[C@@H]1[C@H](NC(=O)c2ccc(C3CC3)cc2)CCCN1c1cnc(C(N)=O)c(Nc2cnn(C3CCN(C)CC3)c2)n1` [Example D-185, 5-[(2R,3R)-3-(4-cyclopropylbenzamido)-2-methylpiperidin-1-yl]-3-{[1-(1-methylpiperidin-4-yl)-1H-pyrazol-4-yl]amino}pyrazine-2-carboxamide] here?
**A.** ≤ 10 nM

**Q.** How did the IC50 turn out when `Cc1cc(Nc2nc(N3CCC[C@@H](c4ncc(-c5ccc(C6CC6)cc5)[nH]4)[C@H]3C)cnc2C(N)=O)sn1` [Example D-186, 5-[(2R,3R)-3-[5-(4-cyclopropylphenyl)-1H-imidazol-2-yl]-2-methylpiperidin-1-yl]-3-[(3-methyl-1,2-thiazol-5-yl)amino]pyrazine-2-carboxamide] was run?
**A.** 10 to 100 nM

**Q.** How did the IC50 turn out when `C[C@@H]1[C@H](NC(=O)c2ccc(C3CC3)cc2)CCCN1c1cnc(C(N)=O)c(Nc2cnn(CCN(C)C)c2)n1` [Example D-187, 5-[(2R,3R)-3-(4-cyclopropylbenzamido)-2-methylpiperidin-1-yl]-3-({1-[2-(dimethylamino)ethyl]-1H-pyrazol-4-yl}amino)pyrazine-2-carboxamide] was run?
**A.** 10 to 100 nM

**Q.** How did the IC50 turn out when `C[C@@H]1[C@H](NC(=O)c2ccc(C3CC3)cn2)CCCN1c1cnc(C(N)=O)c(Nc2ccc(N3CCN(C)CC3)cc2)n1` [Example D-188, 5-[(2R,3R)-3-(5-cyclopropylpyridine-2-amido)-2-methylpiperidin-1-yl]-3-{[4-(4-methylpiperazin-1-yl)phenyl]amino}pyrazine-2-carboxamide] was run?
**A.** ≤ 10 nM

**Q.** How did the IC50 turn out when `Cn1cc(Nc2nc(N3C[C@@H](NC(=O)c4ccc(C5CC5)cc4)CC(F)(F)C3)cnc2C(N)=O)cn1` [Example D-189, 5-[(5S)-5-(4-cyclopropylbenzamido)-3,3-difluoropiperidin-1-yl]-3-[(1-methyl-1H-pyrazol-4-yl)amino]pyrazine-2-carboxamide] was run?
**A.** 100 to 1000 nM

**Q.** How did the IC50 turn out when `Cn1cc(Nc2nc(N3CCC[C@@H](NC(=O)c4ccc(C5CC5)cc4)C3)cnc2C(N)=O)cn1` [Example D-191, 5-[(3R)-3-(4-cyclopropylbenzamido)piperidin-1-yl]-3-[(1-methyl-1H-pyrazol-4-yl)amino]pyrazine-2-carboxamide] was run?
**A.** 10 to 100 nM

**Q.** `Cn1cc(Nc2nc(N3CCC(F)(F)[C@H](NC(=O)c4ccc(C5CC5)cc4)C3)cnc2C(N)=O)cn1` [Example D-192, 5-[(3R)-3-(4-cyclopropylbenzamido)-4,4-difluoropiperidin-1-yl]-3-[(1-methyl-1H-pyrazol-4-yl)amino]pyrazine-2-carboxamide] was tested. Which IC50 did it give?
**A.** 1000 to 10000 nM

**Q.** How did the IC50 turn out when `Cn1cc(Nc2nc(N3CCC(F)(F)[C@@H](NC(=O)c4ccc(C5CC5)cc4)C3)cnc2C(N)=O)cn1` [Example D-193, 5-[(3S)-3-(4-cyclopropylbenzamido)-4,4-difluoropiperidin-1-yl]-3-[(1-methylpyrazol-4-yl)amino]pyrazine-2-carboxamide] was run?
**A.** 10 to 100 nM

**Q.** For `C[C@@H]1[C@H](NC(=O)c2ccc(C(C)(C)O)cc2)CCCN1c1cnc(C(N)=O)c(Nc2cnn(C)c2)n1` [Example D-194, 5-[(2R,3R)-3-[4-(2-hydroxypropan-2-yl)benzamido]-2-methylpiperidin-1-yl]-3-[(1-methyl-1H-pyrazol-4-yl)amino]pyrazine-2-carboxamide], which IC50 is on record?
**A.** ≤ 10 nM

**Q.** `Cn1cc(Nc2nc(N3CCC[C@@H](NC(=O)c4ccc(C5CC5)cc4)C3)nnc2C(N)=O)cn1` [Example D-195, 3-[(3R)-3-(4-cyclopropylbenzamido)piperidin-1-yl]-5-[(1-methyl-1H-pyrazol-4-yl)amino]-1,2,4-triazine-6-carboxamide] was tested. Which IC50 did it give?
**A.** ≤ 10 nM

**Q.** For `C[C@@H]1[C@H](NC(=O)c2ccc(N(C)C)cc2)CCCN1c1cnc(C(N)=O)c(Nc2ccc(N3CCN(C)CC3)cc2)n1` [Example D-196, 5-[(2R,3R)-3-[4-(dimethylamino)benzamido]-2-methylpiperidin-1-yl]-3-{[4-(4-methylpiperazin-1-yl)phenyl]amino}pyrazine-2-carboxamide], which IC50 is on record?
**A.** ≤ 10 nM

**Q.** Which IC50 does the source give for `CC(C)c1ccc(C(=O)N[C@@H]2CCCN(c3cnc(C(N)=O)c(Nc4cnn(C)c4)n3)[C@@H]2C)cc1` [Example D-197, 3-[(1-methyl-1H-pyrazol-4-yl)amino]-5-[(2R,3R)-2-methyl-3-[4-(propan-2-yl)benzamido]piperidin-1-yl]pyrazine-2-carboxamide] here?
**A.** ≤ 10 nM

**Q.** With `C[C@@H]1[C@H](NC(=O)c2ncc(C3CC3)cn2)CCCN1c1cnc(C(N)=O)c(Nc2cnn(C)c2)n1` [Example D-198, 5-[(2R,3R)-3-(5-cyclopropylpyrimidine-2-amido)-2-methylpiperidin-1-yl]-3-[(1-methyl-1H-pyrazol-4-yl)amino]pyrazine-2-carboxamide] as the compound, how does the IC50 read?
**A.** ≤ 10 nM

**Q.** With `C[C@@H]1[C@H](NC(=O)c2ccc(C3CC3)nc2)CCCN1c1cnc(C(N)=O)c(Nc2ccc(N3CCN(C)CC3)cc2)n1` [Example D-203, 5-[(2R,3R)-3-(6-cyclopropylpyridine-3-amido)-2-methylpiperidin-1-yl]-3-{[4-(4-methylpiperazin-1-yl)phenyl]amino}pyrazine-2-carboxamide] as the compound, how does the IC50 read?
**A.** ≤ 10 nM

**Q.** How did the IC50 turn out when `C[C@@H]1[C@H](NC(=O)c2cnc(C3CC3)cn2)CCCN1c1cnc(C(N)=O)c(Nc2cnn(C)c2)n1` [Example D-205, 5-[(2R,3R)-3-(5-cyclopropylpyrazine-2-amido)-2-methylpiperidin-1-yl]-3-[(1-methyl-1H-pyrazol-4-yl)amino]pyrazine-2-carboxamide] was run?
**A.** ≤ 10 nM

**Q.** For `Cn1cc(Nc2nc(N3CCC[C@@H](n4ccc5cc(C6CC6)ccc5c4=O)C3)nnc2C(N)=O)cn1` [Example D-206, 3-[(3R)-3-(6-cyclopropyl-1-oxo-1,2-dihydroisoquinolin-2-yl)piperidin-1-yl]-5-[(1-methyl-1H-pyrazol-4-yl)amino]-1,2,4-triazine-6-carboxamide], which IC50 is on record?
**A.** ≤ 10 nM

**Q.** `C[C@@H]1[C@H](NC(=O)c2ccc(C3CC3)cc2)CCCN1c1cnc(C(N)=O)c(Nc2cnn(C)c2)c1` [Example D-207, 5-[(2R,3R)-3-(4-cyclopropylbenzamido)-2-methylpiperidin-1-yl]-3-[(1-methyl-1H-pyrazol-4-yl)amino]pyridine-2-carboxamide] was tested. Which IC50 did it give?
**A.** ≤ 10 nM

**Q.** With `C[C@@H]1[C@H](NC(=O)c2ccc(C(C)(C)C)cn2)CCCN1c1cnc(C(N)=O)c(Nc2cnn(C)c2)n1` [Example D-208, 5-[(2R,3R)-3-(5-tert-butylpyridine-2-amido)-2-methylpiperidin-1-yl]-3-[(1-methyl-1H-pyrazol-4-yl)amino]pyrazine-2-carboxamide] as the compound, how does the IC50 read?
**A.** ≤ 10 nM

**Q.** `CN1CCN([C@@H]2CCCN(c3cnc(C(N)=O)c(Nc4cnn(C)c4)n3)C2)C1=O` [Example D-209, 3-[(1-methyl-1H-pyrazol-4-yl)amino]-5-[(3R)-3-(3-methyl-2-oxoimidazolidin-1-yl)piperidin-1-yl]pyrazine-2-carboxamide] was tested. Which IC50 did it give?
**A.** 10 to 100 nM

**Q.** With `Cc1ncc(Nc2nc(N3CCC[C@@H](NC(=O)c4ccc(C5CC5)cc4)[C@H]3C)cnc2C(N)=O)s1` [Example D-210, 5-[(2R,3R)-3-(4-cyclopropylbenzamido)-2-methylpiperidin-1-yl]-3-[(2-methyl-1,3-thiazol-5-yl)amino]pyrazine-2-carboxamide] as the compound, how does the IC50 read?
**A.** ≤ 10 nM

**Q.** How did the IC50 turn out when `C[C@@H]1[C@H](NC(=O)c2ccc(C3CC3)cc2)CCCN1c1cnc(C(N)=O)c(Nc2ccc(OC3CCN4CCCC4C3)cc2)n1` (stereo partly drawn) [Example D-211, 5-[(2R,3R)-3-(4-cyclopropylbenzamido)-2-methylpiperidin-1-yl]-3-{[4-(octahydroindolizin-7-yloxy)phenyl]amino}pyrazine-2-carboxamide] was run?
**A.** ≤ 10 nM

**Q.** For `C[C@@H]1[C@H](NC(=O)c2ccc(C3(O)CCCC3)cc2)CCCN1c1cnc(C(N)=O)c(Nc2cnn(C)c2)n1` [Example D-212, 5-[(2R,3R)-3-[4-(1-hydroxycyclopentyl)benzamido]-2-methylpiperidin-1-yl]-3-[(1-methyl-1H-pyrazol-4-yl)amino]pyrazine-2-carboxamide], which IC50 is on record?
**A.** ≤ 10 nM

**Q.** `C[C@@H]1[C@H](NC(=O)c2ccc(C3CC3)cc2)CCCN1c1cnc(C(N)=O)c(Nc2cnn(CC(C)(C)O)c2)n1` [Example D-215, 5-[(2R,3R)-3-(4-cyclopropylbenzamido)-2-methylpiperidin-1-yl]-3-{[1-(2-hydroxy-2-methylpropyl)-1H-pyrazol-4-yl]amino}pyrazine-2-carboxamide] was tested. Which IC50 did it give?
**A.** ≤ 10 nM

**Q.** Which IC50 does the source give for `C[C@@H]1[C@H](NC(=O)c2ccc3c(c2)OC(F)(F)O3)CCCN1c1cnc(C(N)=O)c(Nc2cnn(C)c2)n1` [Example D-216, 5-[(2R,3R)-3-(2,2-difluoro-2H-1,3-benzodioxole-5-amido)-2-methylpiperidin-1-yl]-3-[(1-methyl-1H-pyrazol-4-yl)amino]pyrazine-2-carboxamide] here?
**A.** ≤ 10 nM

**Q.** `C[C@@H]1[C@H](NC(=O)c2ccc(N(C)CCO)cc2)CCCN1c1cnc(C(N)=O)c(Nc2cnn(C)c2)n1` [Example D-217, 5-[(2R,3R)-3-{4-[(2-hydroxyethyl)(methyl)amino]benzamido}-2-methylpiperidin-1-yl]-3-[(1-methyl-1H-pyrazol-4-yl)amino]pyrazine-2-carboxamide] was tested. Which IC50 did it give?
**A.** ≤ 10 nM

**Q.** How did the IC50 turn out when `CCN(CC)c1ccc(C(=O)N[C@@H]2CCCN(c3cnc(C(N)=O)c(Nc4cnn(C)c4)n3)[C@@H]2C)cc1` [Example D-218, 5-[(2R,3R)-3-[4-(diethylamino)benzamido]-2-methylpiperidin-1-yl]-3-[(1-methyl-1H-pyrazol-4-yl)amino]pyrazine-2-carboxamide] was run?
**A.** ≤ 10 nM
